{"source": "paper PMC9933483", "about": "“Tail-Approach-Based Design and Synthesis of Coumarin-Monoterpenes as Carbonic Anhydrase Inhibitors and Anticancer Agents” (ACS Omega, 2023)", "key": {"HEK293T cell line": {"test_system": "HEK293T cell line", "test": "Cell cytotoxicity, MTT assay", "format": "cell-based", "conditions": "Homo sapiens, HEK-293T, 24 h, healthy cell line"}, "CA XII [1]": {"test_system": "CA XII", "test": "Western blotting of CA XII protein expression in MCF-7 cells", "format": "cell-based, human", "conditions": "western blot, hypoxia (200 μM CoCl2), 24 h, three doses", "procedure": "(§1) CA IX and CA XII protein expressions were evaluated in treated and control HT-29 and MCF7 cells after hypoxia induction. Cells were seeded in a 6-well plate in DMEM/F12 (normoxic cells) or DMEM/F12 containing 200 μM CoCl2 (hypoxic and treated cells) in order to create hypoxia.[25] HT29 cells were treated with 14 (40, 10, and 1.25 μM), 23 (80, 20, and 1.25 μM), and 66 (80, 20, and 1.25 μM), and MCF7 cells were treated with 14 (40, 10, and 1.25 μM), 23 (80, 20, and 1.25 μM), and 63 (80, 20, and 1.25 μM) for 24 h at three different doses. After the treatment period, cells were washed with cold PBS and homogenized into Ripa cell lysis buffer (Santa Cruz, USA). Samples were prepared, electrophoresed, and transferred according to the literature.[25] The membranes were blocked in 5% fat-free milk (w/v) for 1 h at RT, incubated with the corresponding antibody at 4 °C overnight, and then incubated with the horseradish peroxidase (HRP)-labeled secondary antibody for 1 h at RT. The following antibodies were used: anti-CA IX (ab107257, Abcam), anti-CA XII (sc-374314, Santa Cruz), and anti-GAPDH (A19056, Abclonal). Finally, the membranes were stained with ECL reagents (LumiGLO, CST, USA), and then, imaging was performed with the Bio-Rad Chemidoc Imaging System. The bands were calculated with the Image Lab (Bio-Rad, USA) and analyzed with Graphpad Prism 9.00 (San Diego, CA, USA)."}, "HT-29 cell line": {"test_system": "HT-29 cell line", "test": "Cell cytotoxicity, MTT assay", "format": "cell-based, human", "conditions": "for IC50: Homo sapiens, HT-29, MTT, 24 h"}, "MCF-7 cell line": {"test_system": "MCF-7 cell line", "test": "Cell cytotoxicity, MTT assay", "format": "cell-based, human", "conditions": "Homo sapiens, MCF7, 24 h"}, "PC-3 cell line": {"test_system": "PC-3 cell line", "test": "Cell cytotoxicity, MTT assay", "format": "cell-based", "conditions": "Homo sapiens, 24 h"}, "HT-29 cells": {"test_system": "HT-29 cells", "test": "Fluorescence microscopy, PI/Hoechst staining", "format": "cell-based, human", "conditions": "HT-29, 1.25 μM, 24 h", "procedure": "HT-29 cells were stained with propidium iodide (PI) and Hoechst 33342 for observation of cell viability under the microscope. HT29 cells were treated with 14, 23, and 66 for 24 h at 1.25 μM concentration. After the treatment period cells were rinsed with PBS, fixed with ice-cold ethanol (95%) at −20 °C for 2 h, and then rinsed with PBS again. Cells were incubated with PI and Hoechst for 10 min and observed by using a fluorescence microscope (Zeiss Axio Observer Z1) with the appropriate excitation/detection filters."}, "CA IX [2]": {"test_system": "CA IX", "test": "Western blotting of CA IX protein expression in MCF-7 cells", "format": "cell-based, human", "conditions": "western blot, hypoxia (200 μM CoCl2), 24 h, three doses", "procedure": "as §1"}, "CA IX [3]": {"test_system": "CA IX", "test": "Western blotting of CA IX protein expression in HT-29 cells", "format": "cell-based, human", "conditions": "western blot, hypoxia (200 μM CoCl2), 24 h, three doses", "procedure": "as §1"}, "CA XII [4]": {"test_system": "CA XII", "test": "Western blotting of CA XII protein expression in HT-29 cells", "format": "cell-based, human", "conditions": "western blot, hypoxia (200 μM CoCl2), 24 h, three doses", "procedure": "as §1"}, "hCA IX": {"target": "hCA IX (Homo sapiens, UniProt Q16790)", "test": "biochemical"}}}
{"smiles": "Cc1ccc(C(C)C)c(OCc2cn(CCCCOc3ccc4ccc(=O)oc4c3)nn2)c1", "note": "[Compound 14, 7-(4-(4-((2-Isopropyl-5-methylphenoxy)methyl)-1H-1,2,3-triazol-1-yl)butoxy)-2H-chromen-2-one]", "values": [{"measurement": "IC50", "setting": "HEK293T cell line", "value": "4.57 ± 0.33", "unit": "µM"}, {"measurement": "CA XII expression in MCF-7 cells", "setting": "CA XII [1]", "value": "decreased"}, {"measurement": "IC50", "setting": "HT-29 cell line", "value": "25.1 ± 6.47", "unit": "µM"}, {"measurement": "IC50", "setting": "MCF-7 cell line", "value": "2.48 ± 0.69", "unit": "µM"}, {"measurement": "IC50", "setting": "PC-3 cell line", "value": "53.8 ± 23.4", "unit": "µM"}, {"measurement": "apoptotic/dead cells by PI/Hoechst staining", "setting": "HT-29 cells", "value": "increased apoptotic/dead cells"}, {"measurement": "CA IX expression in MCF-7 cells", "setting": "CA IX [2]", "value": "decreased"}, {"measurement": "CA IX expression in HT-29 cells", "setting": "CA IX [3]", "value": "decreased"}, {"measurement": "CA XII expression in HT-29 cells", "setting": "CA XII [4]", "value": "decreased"}]}
{"smiles": "Cc1ccc(C(C)C)cc1OCc1cn(CCCCCCOc2ccc3ccc(=O)oc3c2)nn1", "note": "[Compound 23, 7-((6-(4-((5-Isopropyl-2-methylphenoxy)methyl)-1H-1,2,3-triazol-1-yl)hexyl)oxy)-2H-chromen-2-one]", "values": [{"measurement": "IC50", "setting": "HEK293T cell line", "value": "8.82 ± 1.42", "unit": "µM"}, {"measurement": "CA XII expression in MCF-7 cells", "setting": "CA XII [1]", "value": "decreased"}, {"measurement": "Ki", "setting": "hCA IX", "value": 0.0019, "unit": "µM"}, {"measurement": "IC50", "setting": "HT-29 cell line", "value": "12.1 ± 3.63", "unit": "µM"}, {"measurement": "selectivity on HT-29 (cancer vs healthy cells) relative to dox", "setting": "HT-29 cell line; compared with dox", "value": 3, "unit": "fold"}, {"measurement": "IC50", "setting": "MCF-7 cell line", "value": "9.1 ± 3.93", "unit": "µM"}, {"measurement": "IC50", "setting": "PC-3 cell line", "value": "9.4 ± 3.35", "unit": "µM"}, {"measurement": "apoptotic/dead cells by PI/Hoechst staining", "setting": "HT-29 cells", "value": "increased apoptotic/dead cells"}, {"measurement": "CA IX expression in MCF-7 cells", "setting": "CA IX [2]", "value": "decreased"}, {"measurement": "CA IX expression in HT-29 cells", "setting": "CA IX [3]", "value": "decreased"}, {"measurement": "CA XII expression in HT-29 cells", "setting": "CA XII [4]", "value": "decreased"}]}
{"smiles": "C=CCc1ccc(OCCOc2ccc3ccc(=O)oc3c2)c(OC)c1", "note": "[Compound 60, 7-(2-(4-Allyl-2-methoxyphenoxy)ethoxy)-2H-chromen-2-one]", "values": [{"measurement": "IC50", "setting": "HEK293T cell line", "value": "> 80", "unit": "µM"}, {"measurement": "Ki", "setting": "hCA IX", "value": 0.176, "unit": "µM"}, {"measurement": "IC50", "setting": "HT-29 cell line", "value": "> 80", "unit": "µM"}, {"measurement": "IC50", "setting": "MCF-7 cell line", "value": "18.5 ± 3.59", "unit": "µM"}, {"measurement": "IC50", "setting": "PC-3 cell line", "value": "31.5 ± 8.71", "unit": "µM"}, {"measurement": "melting point", "value": "86 to 87", "unit": "°C"}]}
{"smiles": "C=CCc1ccc(OCCCCCCOc2ccc3ccc(=O)oc3c2)c(OC)c1", "note": "[Compound 63, 7-((6-(4-Allyl-2-methoxyphenoxy)hexyl)oxy)-2H-chromen-2-one]", "values": [{"measurement": "IC50", "setting": "HEK293T cell line", "value": "40.6 ± 12.1", "unit": "µM"}, {"measurement": "CA XII expression in MCF-7 cells", "setting": "CA XII [1]", "value": "decreased"}, {"measurement": "IC50", "setting": "HT-29 cell line", "value": "> 200", "unit": "µM"}, {"measurement": "IC50", "setting": "MCF-7 cell line", "value": "3.91 ± 2.16", "unit": "µM"}, {"measurement": "IC50", "setting": "PC-3 cell line", "value": "36.4 ± 12.3", "unit": "µM"}, {"measurement": "CA IX expression in MCF-7 cells", "setting": "CA IX [2]", "value": "decreased"}]}
{"smiles": "C=CCc1ccc(OCCCCCCCCCCOc2ccc3ccc(=O)oc3c2)c(OC)c1", "note": "[Compound 66, 7-((10-(4-Allyl-2-methoxyphenoxy)decyl)oxy)-2H-chromen-2-one]", "values": [{"measurement": "IC50", "setting": "HEK293T cell line", "value": "18.3 ± 3.08", "unit": "µM"}, {"measurement": "Ki", "setting": "hCA IX", "value": 1.3, "unit": "µM"}, {"measurement": "IC50", "setting": "HT-29 cell line", "value": "22 ± 5.63", "unit": "µM"}, {"measurement": "IC50", "setting": "MCF-7 cell line", "value": "17.8 ± 2.76", "unit": "µM"}, {"measurement": "IC50", "setting": "PC-3 cell line", "value": "25.6 ± 3.47", "unit": "µM"}, {"measurement": "apoptotic/dead cells by PI/Hoechst staining", "setting": "HT-29 cells", "value": "increased apoptotic/dead cells"}, {"measurement": "CA IX expression in HT-29 cells", "setting": "CA IX [3]", "value": "decreased"}, {"measurement": "CA XII expression in HT-29 cells", "setting": "CA XII [4]", "value": "decreased"}]}
